Assay results taken from PMC6272497, “Biological Activities and Cytotoxicity of Diterpenes from Copaifera spp. Oleoresins” (Molecules, 2015).
Values joined by “and” are separate entries in the source; they are usually repeats but may differ in a detail not shown here. Equal entries are not always repeated. “Also recorded” adds a separate entry of the source.

Columns and labels:
IL-10 production = IL-10 production in LPS-stimulated J774 cells (CBA); assay type: cell-based, murine
Experimental: (§1) Figure 2 Effect of the isolated diterpenic acids on nitric oxide (NO^•) and cytokine production in lipopolysaccharide-stimulated J774 cells. (A) TNF-α, (B) IL-6 and (C) IL-10 and (D) NO^•. Production of NO^• was assayed in culture supernatants of macrophages stimulated with LPS (1 µg/mL) for 24 h in the presence of the four compounds (25 µg/mL to cytokines and 50 µg/mL to NO^•). The nitrite and cytokines values are the mean ± S.D. from three independent experiments. Indomethacin was used as a standard. Statistical analysis was performed using the Holm-Sidak multiple comparison. * p < 0.05 when compared to control stimulated with LPS. (1) 3-hydroxy-copalic acid, (2) kaurenoic acid, (3) 3-acetoxy-copalic acid, (4) kolavic acid 15-methyl ester, (5) copalic acid and (6) hardwickiic acid.
Macrophage cells (1 × 10^6 cells/mL) were incubated with different concentrations of diterpene compounds (12.5 to 50 μM), and then stimulated with 1 μg/mL of LPS. The culture supernatants were collected after 24 h of LPS stimulation. The levels of cytokines in the culture media were measured by flow cytometry (BD Cytometric Bead Array—CBA—Mouse Inflammation kit) according to the manufacturer’s instructions.

SKMELL28 (melanoma) = assay: Alamar Blue assay, tumoral cells SKMELL28; assay type: cell-based; details: 72 h, 20 µmol/L
Experimental: (§2) We also investigated possible cytotoxic effects on tumor cell lines (Table 1). To characterize this activity, the compounds were tested in different tumor cell lines, among which were AGP-01 (gastric), HCT116 (colorectal), MCF07 (breast cancer), NIHOVCAR (ovary), SKAMELL-4 (melanoma), and SF-295 (human glioblastoma), each at a concentration of 20 µM.
(§3) Cytotoxicity assay. The cytotoxicity of diterpene compounds to the murine macrophage cell line J774 was determined by the Alamar Blue method as described by Nakayama et al.. Briefly, adherent cells (5 × 10^3 cells/well) were grown in 96-well tissue culture plates and exposed to substances (2.5 to 10 µg/mL) for 24, 48 and 72 h. After incubation, the Alamar Blue solution (10 μL of 0.4% Alamar Blue (resazurin) in PBS) was added and the cells were incubated for 3 h at 37 °C. Fluorescence was measured (excitation at 545 nm and emission at 595 nm) and expressed as a percentage of the cells in the control after background fluorescence was subtracted. As a positive control of cell death, doxorubicin (5 µg/mL) was used. The assays were performed in triplicate. For the assays with tumoral cells, an Alamar Blue assay was performed using the following cell lines: AGP01—gastric; HCT116—colorectal; MCF07—breast cancer; NIHOVCAR—ovary; SKAMELL4—melanoma; SF295—human glioblastoma, which were seeded in 96-well plates (0.5 × 10^4 cells per well) and incubated in a CO2 atmosphere at 5% and 37 °C. After 24 h, diterpenes at 20 µM were added to each well and incubated for 72 h. Doxorubicin (10 μM) was used as a positive control and DMSO (0.1%) as a negative control. Before the end of the incubation, 10 µL of Alamar Blue (0.02%) was added to each well. The fluorescent signal was monitored using a multiplate reader using a 530–560 nm excitation wavelength and 590 nm emission wavelength. The fluorescent signal generated from the assay was proportional to the number of live cells in the sample, according to the manufacturer.

MCF7 (breast cancer) = assay: Alamar Blue assay, tumoral cells MCF7; assay type: cell-based; details: 72 h, 20 µmol/L
Experimental: as §2, §3

NIHOVCAR (ovary) = assay: Alamar Blue assay, tumoral cells NIHOVCAR; assay type: cell-based; details: 72 h, 20 µmol/L
Experimental: as §2, §3

[1] = system: SF295 (human glioblastoma); assay: Alamar Blue assay, tumoral cells SF295; assay type: cell-based; details: 72 h, 20 µmol/L
Experimental: as §2, §3

HCT-116 (colorectal) = assay: Alamar Blue assay, tumoral cells HCT-116; assay type: cell-based; details: 72 h, 20 µmol/L
Experimental: as §2, §3

AGP01 (gastric) = assay: Alamar Blue assay, tumoral cells AGP01; assay type: cell-based; details: 72 h, 20 µmol/L
Experimental: as §2, §3

IL-6 production = IL-6 production in LPS-stimulated J774 cells (CBA); assay type: cell-based, murine; details: for inhibition of IL-6 production (words): LPS-stimulated J774; for inhibition at 25 µM: Mus musculus, J774, 25 µM (abstract)
Experimental: as §1, with “Production of NO^• was assayed in culture supernatants of macrophages stimulated with LPS (1 µg/mL) for 24 h in the presence of the four compounds (25 µg/mL to cytokines and 50 µg/mL to NO^•).” left out
[…] The culture supernatants were collected after 24 h of LPS stimulation. The levels of cytokines in the culture media were measured by flow cytometry (BD Cytometric Bead Array—CBA—Mouse Inflammation kit) according to the manufacturer’s instructions.

tyrosinase = assay: Tyrosinase inhibition test; assay type: biochemical
Experimental: The tyrosinase inhibition test was performed at concentrations of 31.25 to 500 µM.
(§4) Figure 1 Tyrosinase and lipoxygenase activities of the isolated diterpenes from Copaifera sp. […] 1. 3-hydroxy-copalic acid, 2. kaurenoic acid, 3. 3-acetoxy-copalic acid, 4. kolavic acid15-methyl ester, 5. copalic acid, and 6. hardwickiic acid. Each value is the mean ± S.E. of three independent experiments. Statistical analysis was performed using Holm-Sidak multiple comparisons. * p < 0.05 compared with the negative control.

[2] = system: nitric oxide production in J774 macrophages stimulated with LPS; assay: NO production assay (Griess) in LPS-stimulated J774 cells; assay type: cell-based, murine; details: Mus musculus; for IC50: J774, LPS 1 µg/mL, 24 h, read-out: inhibition of NO production IC50
Experimental: Our study evaluated the effects of diterpene compounds on the production of nitric oxide in the murine macrophage cell line J774 stimulated with LPS (Figure 2D). NO^• levels were measured by the Greiss method. […] Similar results for kaurenoic acid were observed by Choi et al. […] Figure 2 Effect of the isolated diterpenic acids on nitric oxide (NO^•) and cytokine production in lipopolysaccharide-stimulated J774 cells. (A) TNF-α, (B) IL-6 and (C) IL-10 and (D) NO^•. […] The nitrite and cytokines values are the mean ± S.D. from three independent experiments. Indomethacin was used as a standard. Statistical analysis was performed using the Holm-Sidak multiple comparison. * p < 0.05 when compared to control stimulated with LPS. (1) 3-hydroxy-copalic acid, (2) kaurenoic acid, (3) 3-acetoxy-copalic acid, (4) kolavic acid 15-methyl ester, (5) copalic acid and (6) […]. NO^• production by J774 cells was assayed by measuring the accumulation of nitrite in the culture medium using a Griess reaction. Briefly, after incubation of the cells (1 × 10^6 cells/mL) with diterpene compounds in different concentrations from 6.25 to 100 μM, cells were incubated for 24 h with LPS (1 μg/mL), at 37 °C in a 5% CO2 incubator. Nitric oxide was measured as NO2 in culture supernatant by reaction with Griess reagent. Absorbance of the reaction product was determined at 560 nm using a microplate reader (DTX 800, Beckman). Sodium nitrite was used as a standard to calculate nitrite concentrations.

erythrocyte = assay: Hemolysis test
Experimental: The assay for the characterization of hemolytic activity aimed to evaluate the potential of diterpenes on lysis of the cell membrane.
Blood was collected in heparinized-tubes from Wistar rats, and washed three times with saline solution (NaCl 0.85% + CaCl2 10 mM) by centrifugation at 700 g for 10 min. The pellet of erythrocyte was re-suspended in saline solution for preparation of erythrocyte suspension −2% (SE). A total of 100 µL of the samples of diluted diterpenes was added to 96-well microplates in different concentrations (6.25 to 800 µM); 100 µL of SE was then added; and the samples were incubated for 60 min at 37 °C under constant agitation. The release of hemoglobin was determined after centrifugation (700 g for 10 min) by photometric analysis of the supernatant at 540 nm. Complete hemolysis was achieved using 0.2% Triton X-100 yielding the 100% control value.

Lipoxygenase (LOX) = Lipoxygenase (LOX) (Glycine max, UniProt P08170); assay: Lipoxygenase inhibition; assay type: biochemical
Lipoxygenase (LOX), sequence (P08170 whole entry): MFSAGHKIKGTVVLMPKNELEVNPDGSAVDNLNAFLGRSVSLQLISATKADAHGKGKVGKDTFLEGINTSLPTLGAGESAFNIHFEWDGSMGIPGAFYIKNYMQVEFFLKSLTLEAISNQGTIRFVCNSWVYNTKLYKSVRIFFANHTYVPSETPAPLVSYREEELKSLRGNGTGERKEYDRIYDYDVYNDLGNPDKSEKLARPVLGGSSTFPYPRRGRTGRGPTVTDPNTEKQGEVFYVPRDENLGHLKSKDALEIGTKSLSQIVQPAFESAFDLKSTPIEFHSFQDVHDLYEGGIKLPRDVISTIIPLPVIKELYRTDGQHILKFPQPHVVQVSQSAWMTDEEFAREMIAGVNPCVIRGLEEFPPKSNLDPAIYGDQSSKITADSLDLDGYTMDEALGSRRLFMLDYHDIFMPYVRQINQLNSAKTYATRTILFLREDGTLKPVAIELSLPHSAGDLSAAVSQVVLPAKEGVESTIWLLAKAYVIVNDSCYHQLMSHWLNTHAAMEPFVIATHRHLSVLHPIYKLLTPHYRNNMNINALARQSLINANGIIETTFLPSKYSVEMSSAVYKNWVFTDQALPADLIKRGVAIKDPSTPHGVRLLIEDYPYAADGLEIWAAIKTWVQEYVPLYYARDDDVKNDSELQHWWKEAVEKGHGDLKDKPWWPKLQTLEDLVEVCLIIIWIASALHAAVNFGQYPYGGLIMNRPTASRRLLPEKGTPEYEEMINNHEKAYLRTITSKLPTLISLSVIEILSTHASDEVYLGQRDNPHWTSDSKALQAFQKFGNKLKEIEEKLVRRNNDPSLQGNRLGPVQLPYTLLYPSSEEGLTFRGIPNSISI
Experimental: as §4

LOX = system: LOX; design: method as in doi:10.1007/s00044-013-0559-7; details: read-out: LOX inhibition IC50; cited from earlier work
TNF-α production = system: TNF-α production; design: method as in PMID 11278990; details: cited from earlier work
[3] = LPS-stimulated J774, 12.5 to 50 µM

IC50 [2]	Molecule	IL-10 production (words) (IL-10 production; [3])	Viability inhibition (%) SKMELL28 (SKMELL28 (melanoma))	Viability inhibition (%) MCF7 (MCF7 (breast cancer))	Viability inhibition (%) NIHOVCAR (NIHOVCAR (ovary))	Viability inhibition (%) SF295 [1]	Viability inhibition (%) HCT-116 (HCT-116 (colorectal))	further results
–	C=C1CCC2C(C)(C)[C@H](OC(C)=O)CC[C@@]2(C)[C@@H]1CCC(C)=CC(=O)O (stereo in doubt) [3-acetoxy-copalic acid, 3-Acetoxy-copalic acid]	increased IL-10 production; also recorded: induced IL-10 production	≤0.01%	≤0.01%	2.0 ± 3.5%	17.7 ± 0.9%	≤0.01%	IL-10 production (words) (IL-10 production; 12.5 µM and 25 µM): induced the production of IL-10; IL-10 production (words) (IL-10 production; 50 µM): this induction decreased; Viability inhibition (%) SF295 ([1]; listed as 3-AcO-copalic): around 20%; Viability inhibition (%) AGP01 (AGP01 (gastric)): 13.1 ± 5.3%; inhibition of IL-6 production (words) (IL-6 production): inhibited the production of IL-6; inhibition at 25 µM (IL-6 production): 23.8%
–	C=C1CCC2C(C)(C)[C@H](O)CC[C@@]2(C)[C@@H]1CC/C(C)=C\C(=O)O (some centres unmarked) [3-hydroxy-copalic acid, 3-Hydroxy-copalic acid]	promoted the induction of IL-10 independent of the dose tested	≤0.01%	≤0.01%	≤0.01%	20.5 ± 5.0%	4.7 ± 5.6%	IL-10 production (words) (IL-10 production; LPS-stimulated J774, 12.5 to 50 µM, listed as 3-hydroxy-copalic): induced IL-10 production; also recorded: induced production of interleukin-10; Viability inhibition (%) SF295 ([1]; listed as 3-HO-copalic): around 20%; tyrosinase inhibition (tyrosinase; 250 µM): 63.9% and 64% ± 1.5%; tyrosinase activity relative to standard kojic acid (tyrosinase; 63.9% at 250 µM vs 73.5% at 700 µM): three times more active than the standard; tyrosinase inhibitory activity (tyrosinase; conclusions): higher inhibitory activity; IC50 (tyrosinase; tested at 31.25 to 500 µM): 256 µM; Viability inhibition (%) AGP01 (AGP01 (gastric)): 8.5 ± 13.1%
–	O=c1cc(CO)occ1O [Kojic acid, reference compound]	–	–	–	–	–	–	tyrosinase inhibition (activity of standard) (tyrosinase; 700 µM): 73.5%
57.4 ± 0.2 µM	C=C1CC[C@@H]2C(C)(C)CCC[C@@]2(C)[C@@H]1CC/C(C)=C/C(=O)O [copalic acid, Copalic acid]	increased IL-10 production; also recorded: induced IL-10 production; also recorded: induced production of interleukin-10	≤0.01%	≤0.01%	≤0.01%	≤0.01%	≤0.01%	inhibition at 100 µM ([2]; J774, 100 µM, LPS-activated macrophages): 98.5%; hemolytic activity (erythrocyte; 100 µM (abstract)): 38.4%; hemolytic activity (erythrocyte; 100 mM (so in the source)): 38.4%; inhibition of IL-6 production (words) (IL-6 production): inhibited the production of IL-6; inhibition at 25 µM (IL-6 production): 4.2%
67.4 ± 1.3 µM	C[C@@H]1CC[C@@]2(C)C(C(=O)O)=CCC[C@@H]2[C@@]1(C)CCc1ccoc1 [hardwickiic acid, Hardwickiic acid]	did not induce the production of IL-10	≤0.01%	≤0.01%	≤0.01%	≤0.01%	≤0.01%	–
32 ± 3.5 µM	COc1ccc2c(c1)c(CC(=O)O)c(C)n2C(=O)c1ccc(Cl)cc1 [indomethacin, reference compound]	–	–	–	–	–	–	–
–	COc1c(C(C)C)cc2c(c1O)C=C1C=CC(=O)C(C)(C)C1CC2=O (centres unmarked) [taxamairin F]	–	–	–	–	–	–	IC50 (LOX): 73 ± 0.14 µM
–	COc1c(C(C)C)cc2c(c1OC)[C@@]13CCC(=O)C(C)(C)[C@@H]1[C@H](OC3=O)C2=O [taxusabietane C]	–	–	–	–	–	–	IC50 (LOX): 69 ± 0.31 µM
–	foliol	–	–	–	–	–	–	inhibition of TNF-α production (TNF-α production): showed inhibitory activity on the production of TNF-α
–	linearol acid	–	–	–	–	–	–	inhibition of TNF-α production (TNF-α production): showed inhibitory activity on the production of TNF-α

Molecule	IC50 [2]	IL-10 production (words) (IL-10 production; [3])	Viability inhibition (%) SKMELL28 (SKMELL28 (melanoma))	Viability inhibition (%) MCF7 (MCF7 (breast cancer))	Viability inhibition (%) NIHOVCAR (NIHOVCAR (ovary))	Viability inhibition (%) SF295 [1]	Viability inhibition (%) HCT-116 (HCT-116 (colorectal))	further results
COC(=O)/C=C(/C)CC[C@@]1(C)[C@H](C)CC[C@@]2(C)C(C(=O)O)=CCC[C@H]12 [kolavic acid 15-methyl ester, Kolavic acid-15-metyl ester]	81.6 ± 2.8 µM	did not induce the production of IL-10	≤0.01%	≤0.01%	≤0.01%	≤0.01%	≤0.01%	lipoxygenase inhibition (Lipoxygenase (LOX); 200 µM): 89.5% ± 1.2%; lipoxygenase inhibition activity (Lipoxygenase (LOX); conclusions, compared to standard quercetin): high lipoxigenase inhibition activity; Viability inhibition (%) AGP01 (AGP01 (gastric)): 17.4 ± 6.7%; inhibition of IL-6 production (words) (IL-6 production; listed as kolavic-15-methyl ester): inhibited the production of IL-6; inhibition at 25 µM (IL-6 production): 17.3%
